Residues, ends and D or L forms follow the SMILES beside them.
Experiment: Cryo-transmission electron microscopy of aqueous peptide solutions (self-assembly)
Type: physicochemical
Conditions: Cryo-TEM, aqueous solution 5 mg/ml, pH 7
Method: Cryo-transmission electron microscopy experiments were performed on aqueous solution of the different peptides at a concentration of 5 mg/ml. In order to solubilize these peptides in water, it was necessary to deprotonate the carboxylic groups by adjusting the pH with a solution of sodium hydroxide 0.1N. The oligopeptides investigated start to be soluble in water at pH 5 to 6, depending on the amino acid sequence. All the experiments presented in this work were carried out using peptide solutions at pH 7. […] The cylindrical assemblers present a three-dimensional transient network somehow similar to flexible polymers in their semidilute or concentrated solutions^22. It should be pointed out that, in the electron micrographs, only a two-dimensional projection of the peptides nanotubes could be imaged. The network below and above a defined point in the space could be relatively distant in three dimensions, while appearing superimposed in the two-dimensional projection. […] These self-assemblies have high axial ratios and extend in length to several tens of micrometers. Additionally, one can easily identify many three-fold junctions or branchings connecting the nanotubes and thus forming the final network. […] Alternatively, two nanotubes could fuse together to form a tentative 4-arm branch. It has been shown that this kind of branching is energetically unstable and, thus, those observed in FIG. 3 are most likely due to the 2-D representation of a spatial network.
In fact, one can easily recognize nanotubes of about 50 nm diameter linked by an increased numbers of three-fold junction. As a result, the branches are more abundant than those observed in the samples VVVVVVD (V6D) (SEQ ID NO: 36), […] (SEQ ID NO: 38) and AAAAAAD (A6D) (SEQ ID NO: 37). They have also a smaller axial ratio and a much smaller average diameter of about 10 to 15 nm. […] (SEQ ID NO: 39) is the most hydrophobic compound with the tail constituted of six leucines. […] These molecular assemblies are very similar to threadlike micellar systems made from traditional amphiphilic molecules such as cetyltrimethylammonium bromide (CTAB)^29-30. It should be noted that a large number of vesicle-like spherical assemblies also appear in the TEM micrograph.
Cryo-TEM micrograph at high resolution provides a detailed structure of the peptide nanotubes formed by AAAAAAD (SEQ ID NO: 35) (see FIG. 4). […] Additionally, helical pitches between 150 and 200 nm, depending on the nanotubes diameter, were also observed. Similar results have been documented with hollow cylinders formed of bilayer membrane of diacetylenic lipids^31. Theories based on molecular chirality have been developed to explain the presence of helical markings that wind around the cylinders^32.

SMILES	nanotube diameter	morphology of the self-assemblies	morphology of the self-assemblies (listed as AAAAAAD)
CC(=O)N[C@@H](C)C(=O)N[C@@H](C)C(=O)N[C@@H](C)C(=O)N[C@@H](C)C(=O)N[C@@H](C)C(=O)N[C@@H](C)C(=O)N[C@@H](CC(=O)O)C(=O)N[C@@H](CC(=O)O)C(=O)O [A6D2, [Acetyl]-AAAAAADD-CO2] (Ac-AAAAAADD-OH)	about 50 nm		
CC(=O)N[C@@H](C)C(=O)N[C@@H](C)C(=O)N[C@@H](C)C(=O)N[C@@H](C)C(=O)N[C@@H](C)C(=O)N[C@@H](C)C(=O)N[C@@H](CC(=O)O)C(=O)O [A6D, [Acetyl]-AAAAAAD-CO2] (Ac-AAAAAAD-OH)		cylindrical morphologies	hollow tubular structures
CC(=O)N[C@@H](CC(C)C)C(=O)N[C@@H](CC(C)C)C(=O)N[C@@H](CC(C)C)C(=O)N[C@@H](CC(C)C)C(=O)N[C@@H](CC(C)C)C(=O)N[C@@H](CC(C)C)C(=O)N[C@@H](CC(=O)O)C(=O)N[C@@H](CC(=O)O)C(=O)O [L6D2, [Acetyl]-LLLLLLDD-CO2] (Ac-LLLLLLDD-OH)		does not exhibit any nanotubular structures but rather a network of entangled rodlike micelles	
CC(=O)N[C@H](C(=O)N[C@H](C(=O)N[C@H](C(=O)N[C@H](C(=O)N[C@H](C(=O)N[C@H](C(=O)N[C@@H](CC(=O)O)C(=O)N[C@@H](CC(=O)O)C(=O)O)C(C)C)C(C)C)C(C)C)C(C)C)C(C)C)C(C)C [V6D2, [Acetyl]-VVVVVVDD-CO2] (Ac-VVVVVVDD-OH)		cylindrical morphologies	
CC(=O)N[C@H](C(=O)N[C@H](C(=O)N[C@H](C(=O)N[C@H](C(=O)N[C@H](C(=O)N[C@H](C(=O)N[C@@H](CC(=O)O)C(=O)O)C(C)C)C(C)C)C(C)C)C(C)C)C(C)C)C(C)C [V6D, [Acetyl]-VVVVVVD-CO2] (Ac-VVVVVVD-OH)		cylindrical morphologies	

From patent US7671258B2, “Surfactant peptide nanostructures, and uses thereof” (Massachusetts Institute of Technology, priority 2001, dated 2010)
